According to patent US7750003B2, “Compounds-943” (AstraZeneca AB, priority 2006, dated 2010):

Tested on: phosphorylation of Serine 473 in Akt in MDA-MB-468 human breast adenocarcinoma cells
Assay: In vitro phospho-Ser473 Akt assay (Test (c))
Assay type: cell-based
Details: Homo sapiens, MDA-MB-468, 2 h, MDA-MB-468 cells, 2 hours incubation; read-out: Test (c): IC50 versus Serine 473 in Akt
Method: (c) In Vitro Phospho-Ser473 Akt Assay
This assay determines the ability of test compounds to inhibit phosphorylation of Serine 473 in Akt as assessed using Acumen Explorer technology (Acumen Bioscience Limited), a plate reader that can be used to rapidly quantitate features of images generated by laser-scanning.
A MDA-MB-468 human breast adenocarcinoma cell line (LGC Promochem, Teddington, Middlesex, UK, Catalogue No. HTB-132) was routinely maintained at 37° C. with 5% CO2 up to a confluency of 70-90% in DMEM containing 10% heat-inactivated FCS and 1% L-glutamine.
For the assay, the cells were detached from the culture flask using ‘Accutase’ (Innovative Cell Technologies Inc., San Diego, Calif., USA; Catalogue No. AT104) using standard tissue culture methods and resuspended in media to give 1.7×10^5 cells per mL. Aliquots (90 μl) were seeded into each of the inner 60 wells of a black Packard 96 well plate (PerkinElmer, Boston, Mass., USA; Catalogue No. 6005182) to give a density of 15000 cells per well. Aliquots (90 μl) of culture media were placed in the outer wells to prevent edge effects. The cells were incubated overnight at 37° C. with 5% CO2 to allow them to adhere.
On day 2, the cells were treated with test compounds and incubated for 2 hours at 37° C. with 5% CO2. Test compounds were prepared as 10 mM stock solutions in DMSO and serially diluted as required with growth media to give a range of concentrations that were 10-fold the required final test concentrations. Aliquots (10 μl) of each compound dilution were placed in a well (in triplicate) to give the final required concentrations. As a minimum response control, each plate contained wells having a final concentration of 100 μM LY294002 (Calbiochem, Beeston, UK, Catalogue No. 440202). As a maximum response control, wells contained 1% DMSO instead of test compound. Following incubation, the contents of the plates were fixed by treatment with a 1.6% aqueous formaldehyde solution (Sigma, Poole, Dorset, UK, Catalogue No. F1635) at room temperature for 1 hour.
All subsequent aspiration and wash steps were carried out using a Tecan 96 well plate washer (aspiration speed 10 mm/sec). The fixing solution was removed and the contents of the plates were washed with phosphate-buffered saline (PBS; 50 μl; Gibco, Catalogue No. 10010015). The contents of the plates were treated for 10 minutes at room temperature with an aliquot (50 μl) of a cell permeabilisation buffer consisting of a mixture of PBS and 0.5% Tween-20. The ‘permeabilisation’ buffer was removed and non-specific binding sites were blocked by treatment for 1 hour at room temperature of an aliquot (50 μl) of a blocking buffer consisting of 5% dried skimmed milk [‘Marvel’ (registered trade mark); Premier Beverages, Stafford, GB] in a mixture of PBS and 0.05% Tween-20. The ‘blocking’ buffer was removed and the cells were incubated for 1 hour at room temperature with rabbit anti phospho-Akt (Ser473) antibody solution (50 μl per well; Cell Signalling, Hitchin, Herts, U.K., Catalogue No 9277) that had been diluted 1:500 in ‘blocking’ buffer. Cells were washed three times in a mixture of PBS and 0.05% Tween-20. Subsequently, cells were incubated for 1 hour at room temperature with Alexafluor488 labelled goat anti-rabbit IgG (50 μl per well; Molecular Probes, Invitrogen Limited, Paisley, UK, Catalogue No. A11008) that had been diluted 1:500 in ‘blocking’ buffer. Cells were washed 3 times with a mixture of PBS and 0.05% Tween-20. An aliquot of PBS (50 μl) was added to each well and the plates were sealed with black plate sealers and the fluorescence signal was detected and analysed.
Fluorescence dose response data obtained with each compound were analysed and the degree of inhibition of Serine 473 in Akt was expressed as an IC50 value.

SMILES: C[C@H]1COCCN1c1cc(CS(=O)(=O)C2CC2)nc(-c2ccc(NC(=O)NCCN(C)C)cc2)n1 [Example 57f, 1-[4-[4-(cyclopropylsulfonylmethyl)-6-[(3S)-3-methylmorpholin-4-yl]pyrimidin-2-yl]phenyl]-3-(2-dimethylaminoethyl)urea]
- IC50: 720 nM

SMILES: C[C@H]1COCCN1c1cc(CS(=O)(=O)C2CC2)nc(-c2ccc(NC(=O)Nc3cnn(C)c3)cc2)n1 [Example 57g, 1-[4-[4-(cyclopropylsulfonylmethyl)-6-[(3S)-3-methylmorpholin-4-yl]pyrimidin-2-yl]phenyl]-3-(1-methylpyrazol-4-yl)urea]
- IC50: 95 nM

SMILES: C[C@H]1COCCN1c1cc(C(C)(C)S(=O)(=O)C2CC2)nc(-c2ccc(NC(=O)NC3CCC3)cc2)n1 [Example 57h, 3-cyclobutyl-1-[4-[4-(2-cyclopropylsulfonylpropan-2-yl)-6-[(3S)-3-methylmorpholin-4-yl]pyrimidin-2-yl]phenyl]urea]
- IC50: 66 nM

SMILES: C[C@H]1COCCN1c1cc(C(C)(C)S(=O)(=O)C2CC2)nc(-c2ccc(NC(=O)NCCO)cc2)n1 [Example 57i, 1-[4-[4-(2-cyclopropylsulfonylpropan-2-yl)-6-[(3S)-3-methylmorpholin-4-yl]pyrimidin-2-yl]phenyl]-3-(2-hydroxyethyl)urea]
- IC50: 270 nM

SMILES: CCNC(=O)Nc1ccc(-c2nc(CS(=O)(=O)C3CC3)cc(N3CCOC[C@@H]3C)n2)cc1 [Example 57j, 1-[4-[4-(cyclopropylsulfonylmethyl)-6-[(3S)-3-methylmorpholin-4-yl]pyrimidin-2-yl]phenyl]-3-ethyl-urea]
- IC50: 70 nM

SMILES: CCNC(=O)Nc1ccc(-c2nc(N3CCOC[C@@H]3C)cc(C(C)(C)S(=O)(=O)C3CC3)n2)cc1 [Example 57k, 1-[4-[4-(2-cyclopropylsulfonylpropan-2-yl)-6-[(3S)-3-methylmorpholin-4-yl]pyrimidin-2-yl]phenyl]-3-ethyl-urea]
- IC50: 340 nM

SMILES: C[C@H]1COCCN1c1cc(CS(=O)(=O)C2CC2)nc(-c2ccc(NC(=O)NC3CCC3)cc2)n1 [Example 57l, 3-cyclobutyl-1-[4-[4-(cyclopropylsulfonylmethyl)-6-[(3S)-3-methylmorpholin-4-yl]pyrimidin-2-yl]phenyl]urea]
- IC50: 88 nM

SMILES: C[C@H]1COCCN1c1cc(CS(=O)(=O)CCO)nc(-c2ccc(NC(=O)NC3CCC3)cc2)n1 [Example 59a, 3-cyclobutyl-1-[4-[4-(2-hydroxyethylsulfonylmethyl)-6-[(3S)-3-methylmorpholin-4-yl]pyrimidin-2-yl]phenyl]urea]
- IC50: 37 nM

SMILES: CC(C)S(=O)(=O)Cc1cc(N2CCOC[C@@H]2C)nc(-c2ccc(NC(=O)NC3CCC3)cc2)n1 [Example 60, 3-Cyclobutyl-1-[4-[4-[(3S)-3-methylmorpholin-4-yl]-6-(propan-2-ylsulfonylmethyl)pyrimidin-2-yl]phenyl]urea]
- IC50: 1000 nM

SMILES: CCCNC(=O)Nc1ccc(-c2nc(CS(=O)(=O)C(C)C)cc(N3CCOC[C@@H]3C)n2)cc1 [Example 60a, 3-[4-[4-[(3S)-3-methylmorpholin-4-yl]-6-(propan-2-ylsulfonylmethyl)pyrimidin-2-yl]phenyl]-1-propyl-urea]
- IC50: 3300 nM

SMILES: CC(C)CNC(=O)Nc1ccc(-c2nc(CS(=O)(=O)C(C)C)cc(N3CCOC[C@@H]3C)n2)cc1 [Example 60b, 1-[4-[4-[(3S)-3-methylmorpholin-4-yl]-6-(propan-2-ylsulfonylmethyl)pyrimidin-2-yl]phenyl]-3-(2-methylpropyl)urea]
- IC50: 1800 nM

SMILES: CC(C)S(=O)(=O)Cc1cc(N2CCOC[C@@H]2C)nc(-c2ccc(NC(=O)NCCCO)cc2)n1 [Example 60c, 3-(3-hydroxypropyl)-1-[4-[4-[(3S)-3-methylmorpholin-4-yl]-6-(propan-2-ylsulfonylmethyl)pyrimidin-2-yl]phenyl]urea]
- IC50: 770 nM

SMILES: CC(C)S(=O)(=O)Cc1cc(N2CCOC[C@@H]2C)nc(-c2ccc(NC(=O)Nc3ccc(C(F)(F)F)cc3)cc2)n1 [Example 60d, 1-[4-[4-[(3S)-3-methylmorpholin-4-yl]-6-(propan-2-ylsulfonylmethyl)pyrimidin-2-yl]phenyl]-3-[4-(trifluoromethyl)phenyl]urea]
- IC50: 590 nM

SMILES: CC(C)S(=O)(=O)Cc1cc(N2CCOC[C@@H]2C)nc(-c2ccc(NC(=O)Nc3ccccn3)cc2)n1 [Example 60e, 1-[4-[4-[(3S)-3-methylmorpholin-4-yl]-6-(propan-2-ylsulfonylmethyl)pyrimidin-2-yl]phenyl]-3-pyridin-2-yl-urea]
- IC50: 1300 nM

SMILES: CC(C)NC(=O)Nc1ccc(-c2nc(CS(=O)(=O)C(C)C)cc(N3CCOC[C@@H]3C)n2)cc1 [Example 60f, 1-[4-[4-[(3S)-3-methylmorpholin-4-yl]-6-(propan-2-ylsulfonylmethyl)pyrimidin-2-yl]phenyl]-3-propan-2-yl-urea]
- IC50: 870 nM

SMILES: CC(C)S(=O)(=O)Cc1cc(N2CCOC[C@@H]2C)nc(-c2ccc(NC(=O)NC(C)(C)CO)cc2)n1 [Example 60g, 3-(1-hydroxy-2-methyl-propan-2-yl)-1-[4-[4-[(3S)-3-methylmorpholin-4-yl]-6-(propan-2-ylsulfonylmethyl)pyrimidin-2-yl]phenyl]urea]
- IC50: 220 nM

SMILES: CC(C)S(=O)(=O)Cc1cc(N2CCOC[C@@H]2C)nc(-c2ccc(NC(=O)Nc3cnn(C)c3)cc2)n1 [Example 60h, 1-[4-[4-[(3S)-3-methylmorpholin-4-yl]-6-(propan-2-ylsulfonylmethyl)pyrimidin-2-yl]phenyl]-3-(1-methylpyrazol-4-yl)urea]
- IC50: 1900 nM

SMILES: CNC(=O)Nc1ccc(-c2nc(N3CCOC[C@@H]3C)cc(C(C)(C)S(=O)(=O)C(C)C)n2)cc1 [Example 60i, 3-methyl-1-[4-[4-[(3S)-3-methylmorpholin-4-yl]-6-(2-propan-2-ylsulfonylpropan-2-yl)pyrimidin-2-yl]phenyl]urea]
- IC50: 120 nM

SMILES: CCNC(=O)Nc1ccc(-c2nc(N3CCOC[C@@H]3C)cc(C(C)(C)S(=O)(=O)C(C)C)n2)cc1 [Example 60j, 1-ethyl-3-[4-[4-[(3S)-3-methylmorpholin-4-yl]-6-(2-propan-2-ylsulfonylpropan-2-yl)pyrimidin-2-yl]phenyl]urea]
- IC50: 190 nM

SMILES: CC(C)NC(=O)Nc1ccc(-c2nc(N3CCOC[C@@H]3C)cc(C(C)(C)S(=O)(=O)C(C)C)n2)cc1 [Example 60k, 1-[4-[4-[(3S)-3-methylmorpholin-4-yl]-6-(2-propan-2-ylsulfonyl-propan-2-yl)pyrimidin-2-yl]phenyl]-3-propan-2-yl-urea]
- IC50: 180 nM

SMILES: CC(C)S(=O)(=O)C(C)(C)c1cc(N2CCOC[C@@H]2C)nc(-c2ccc(NC(=O)NC3CC3)cc2)n1 [Example 60l, 3-cyclopropyl-1-[4-[4-[(3S)-3-methylmorpholin-4-yl]-6-(2-propan-2-ylsulfonylpropan-2-yl)pyrimidin-2-yl]phenyl]urea]
- IC50: 64 nM

SMILES: CC(C)S(=O)(=O)C(C)(C)c1cc(N2CCOC[C@@H]2C)nc(-c2ccc(NC(=O)NC3CCC3)cc2)n1 [Example 60m, 3-cyclobutyl-1-[4-[4-[(3S)-3-methylmorpholin-4-yl]-6-(2-propan-2-ylsulfonylpropan-2-yl)pyrimidin-2-yl]phenyl]urea]
- IC50: 59 nM

SMILES: CC(C)S(=O)(=O)C(C)(C)c1cc(N2CCOC[C@@H]2C)nc(-c2ccc(NC(=O)NCCO)cc2)n1 [Example 60n, 3-(2-hydroxyethyl)-1-[4-[4-[(3S)-3-methylmorpholin-4-yl]-6-(2-propan-2-ylsulfonylpropan-2-yl)pyrimidin-2-yl]phenyl]urea]
- IC50: 150 nM
